# Results as given in patent US20190290621A1, “COMPOSITIONS AND METHODS FOR TREATING HIV-1 LATENCY” (priority 2017, published 2019).
# pEC50: −log10 of the molar value.
# Tests used:
# [1] = tested on: Class II HDAC; assay: Western blot for acetylated tubulin as a measure of Class II HDAC inhibition; format: cell-based; details: Jurkat cells and primary resting CD4+ T-cells, 8 hours
# [2] = tested on: Class I HDAC; assay: Western blot for acetylated histone H3 as a measure of Class I HDAC inhibition; format: cell-based; details: Jurkat cells and primary resting CD4+ T-cells, 8 hours
# [3] = molecular target: HDAC3 (Homo sapiens, UniProt O15379); details: cited from earlier work
# [4] = tested on: HIV Gag; assay: Western blot for HIV Gag in JLAT10.6 cells; format: cell-based; details: 24 h
# [5] = tested on: HIV-1 LTR; assay: ChIP assay of acetylated histone H3 at the HIV-1 LTR; format: cell-based; details: JLAT10.6 cells, 6 hours, HIV-1 LTR qPCR
# Method: Since histone H3 is […] by Class I HDACs and known to bind to the HIV LTR promoter, we determined H3 acetylation status of the HIV-1 LTR in JLAT10.6 cells. […] The ChIP assay was performed using a ChIP kit (ab500) (Abcam; Cambridge, Mass.). Briefly, an anti-rabbit IgG (Cell Signaling Technologies; Danvers, Mass.) was used as an isotype control. Actin was used as an internal control. Total chromatin (input) and the immunoprecipitated chromatin were used as templates and HIV-1 LTR was amplified by quantitative PCR using HIV-1 LTR (forward: 5-[…] […]-3, reverse: 5-TAG […] A-3) and actin primers. Using ChIP, we recovered 15% of the DNA from SDL148-treated cells using anti-acetylated histone H3 antibody compared to less than 5% recovery with DMSO-treated cells, and less than 1% from the IgG-negative controls. […] An alternative mechanism is modulation of lysines in Tat that impact its ability to interact with TAR of the HIV-1 LTR (37-39).
# [6] = tested on: JLAT10.6 cells; assay: HIV-1 latency reactivation screen in JLAT10.6 cells (GFP by FACS); format: cell-based
# Method: For screening purposes, JLAT10.6 cells, a T-cell line that has been widely used for HIV-1 reactivation studies (32-34) were utilized. In this cell line, HIV-1Δenv from the NL4-3 backbone with GFP replacing the Nef gene is stably integrated into the genome and is expressed at undetectable levels. Upon HIV reactivation with latency reversing agents (LRAs), viral production leads to expression of GFP that was measured by fluorescent activation cell sorting (FACS) analysis using a Becton Dickinson FACS machine. Analysis was performed using BD […] PRO software (BD Biosciences; Franklin Lakes, N.J.). The stronger the HIV reactivation, the higher the percentage of GFP-positive cells observed. JLAT10.6 cells were incubated with HDAC inhibitors at concentrations of 1 and 10 μM for 24 hours, using TNF-α and SAHA (Vorinostat) as positive controls.
# [7] = mice; cited from earlier work
# HDAC3, sequence (O15379 whole entry): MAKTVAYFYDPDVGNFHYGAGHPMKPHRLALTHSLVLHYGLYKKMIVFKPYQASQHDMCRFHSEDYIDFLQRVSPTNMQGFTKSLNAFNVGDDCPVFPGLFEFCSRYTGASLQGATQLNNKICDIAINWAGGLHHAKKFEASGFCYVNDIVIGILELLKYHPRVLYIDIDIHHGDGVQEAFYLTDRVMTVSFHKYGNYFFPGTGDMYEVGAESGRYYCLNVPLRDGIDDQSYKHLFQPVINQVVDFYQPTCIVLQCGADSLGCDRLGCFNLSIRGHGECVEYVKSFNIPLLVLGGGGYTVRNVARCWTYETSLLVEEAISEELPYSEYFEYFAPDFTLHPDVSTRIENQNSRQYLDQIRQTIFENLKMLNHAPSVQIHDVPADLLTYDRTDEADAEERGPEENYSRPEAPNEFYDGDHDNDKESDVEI
# HDAC3, sequence (Q9Y618 395-489 partner limits assumed): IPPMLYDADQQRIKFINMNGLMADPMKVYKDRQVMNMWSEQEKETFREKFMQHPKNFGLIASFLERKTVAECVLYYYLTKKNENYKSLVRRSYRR
compound,measurement,setting,value
"O=C(CCCCCCC(=O)Nc1ccccc1)NO [SAHA, suberoylanilide hydroxamic acid]",acetylation of tubulin,[1],enhanced the acetylation of both histone H3 and tubulin
same,histone H3 acetylation,[2],enhanced the acetylation of both histone H3 and tubulin
largazole [SDL148],potency against HDAC3,[3],picomolar range
same,expression of HIV Gag,[4],enhanced expression of HIV Gag
same,DNA recovered using anti-acetylated histone H3 antibody,[5],15%
same,reactivation of HIV expression at 100 nM,[6]; 100 nM,the only compound able to reactivate HIV expression significantly
same,potency in reactivating HIV from latency compared with vorinostat,"[6]; 1 and 10 μM, 24 hours",comparable or more potent than vorinostat
same,pEC50,[6]; read-out: EC50 to reactivate HIV from latency,6.82
same,bioavailability,[7],excellent bioavailability
